In the supplement of paper PMC8671470:

Assays:
Conditions in all cases: 72 h
[1] = system: myeloid leukemia patient primary cells Pat.13; assay: cell viability (% survival relative to DMSO control); higher = less cytotoxic
In short: (§1)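 Thawed mononuclear cells from AML or CML patients were purified on Ficoll and cultured for 72 h in RPMI 1640 with 10% FBS, at 10,000 cells/well, on 384-well plates carrying 70 pre-printed compounds at 1–10,000 nM in five tenfold steps, in duplicate. Viability came from CellTiter-Glo, normalised against DMSO and against 10 μM proteasome inhibitor. Any area under the curve given was derived from log-logistic curve fits in the drc and PharmacoGx R packages, and these fits had four parameters.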

[2] = system: myeloid leukemia patient primary cells Pat.5; assay: as above
In short: as §1

[3] = system: myeloid leukemia patient primary cells Pat.6; assay: as above
In short: as §1

[4] = system: myeloid leukemia patient primary cells Pat.3; assay: as above
In short: as §1

[5] = system: myeloid leukemia patient primary cells Pat.8; assay: as above
In short: as §1

[6] = system: myeloid leukemia patient primary cells Pat.15; assay: as above
In short: as §1

[7] = system: myeloid leukemia patient primary cells Pat.9; assay: as above
In short: as §1

[8] = system: myeloid leukemia patient primary cells Pat.1; assay: as above
In short: as §1

[9] = system: myeloid leukemia patient primary cells Pat.14; assay: as above
In short: as §1

[10] = system: myeloid leukemia patient primary cells Pat.7; assay: as above
In short: as §1

[11] = system: myeloid leukemia patient primary cells Pat.11; assay: as above
In short: as §1

[12] = system: myeloid leukemia patient primary cells Pat.10; assay: as above
In short: as §1

[13] = system: myeloid leukemia patient primary cells Pat.12; assay: as above
In short: as §1

[14] = system: myeloid leukemia patient primary cells Pat.4; assay: as above
In short: as §1

[15] = system: myeloid leukemia patient primary cells Pat.2; assay: as above
In short: as §1

HL-60 = system: HL-60
In short: (§2)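 Dose–response data were fitted with a four-parameter log-logistic model. They came from fifteen myeloid leukaemia lines treated in duplicate with five tenfold doses from 1 to 10,000 nM for 72 h at 37 °C with 5% CO2, with ATP viability normalised to vehicle and to a positive control at 10 µM. The IC50 was derived from these fits.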

BV-173 = system: BV-173
In short: as §2

ML-2 = system: ML-2
In short: as §2

MOLM-13 = system: MOLM-13
In short: as §2

KG-1 = system: KG-1
In short: as §2

LAMA-84 = system: LAMA-84
In short: as §2

KCL-22 = system: KCL-22
In short: as §2

THP-1 = system: THP-1
In short: as §2

SHI-1 = system: SHI-1
In short: as §2

HEL = system: HEL
In short: as §2

CN1CCN(CCCN2c3ccccc3Sc3ccc(C(F)(F)F)cc32)CC1 [Trifluoperazine]
cell viability [%]
Conditions	1 nM	10 nM	100 nM	1000 nM	10000 nM
[1]	90.5	90.8	99.3	56.4	39.1
[2]	99.9	49.2	88	0.912	3.33
[3]	98.8	94.2	97.8	63.5	23.8
[4]	99.7	80.7	65.1	11.8	0.738
[5]	80	88.9	91.3	69.8	41.6
[6]	98.2	91.9	> 100	78.4	45.9
[7]	79.5	52.7	65.3	0.773	1.6
[8]	97.8	93.7	94.1	56	19.4
[9]	89.2	85.5	86.6	26.5	1.65
[10]	87.1	68.6	42.7	< 0	< 0
[11]	> 100	100	99.9	77.4	12
[12]	55.5	91.7	70.3	13.3	9.9
[13]	95.7	89.5	95.9	87	38.3
[14]	84.5	98.7	97.6	75.1	15.8
[15]	> 100	> 100	> 100	75.6	48.6

Conditions	IC50 (cell viability) [µM]
BV-173	> 10
HEL	> 10
HL-60	5.18
KCL-22	3.49
KG-1	3.54
LAMA-84	> 10
ML-2	9.55
MOLM-13	> 10
SHI-1	> 10
THP-1	> 10
